Measurements: publication PMC10817531, “Chlorinated Enyne Fatty Acid Amides from a Marine Cyanobacterium: Discovery of Taveuniamides L-M and Pharmacological Characterization of Taveuniamide F as a GPCR Antagonist with CNR1 Selectivity” (Marine Drugs, 2023)

Columns and labels:
Assay in all cases: PathHunter β-arrestin GpcrMAX assay
Format in all cases: cell-based
[1] = target: T1, ADRA2C (Homo sapiens, UniProt P18825)
T1 construct: purchased DiscoveRx (Eurofins) gpcrMAX PathHunter β-arrestin panel
Description: (§1) GpcrMAX panel biosensor assays were used to characterize taveuniamide F (4, 20 µM) (agonist and antagonist mode). The experiments were carried out by DiscoveRx Corporation (Fremont, CA, USA) as described before, using PathHunter β-arrestin enzyme fragment complementation (EFC) technology.

[2] = target: T2, HCRTR1 (Homo sapiens, UniProt O43613)
T2 construct: purchased DiscoveRx (Eurofins) gpcrMAX PathHunter β-arrestin panel
Description: as §1

[3] = target: T3, P2RY1 (Homo sapiens, UniProt P47900)
T3 construct: purchased DiscoveRx (Eurofins) gpcrMAX PathHunter β-arrestin panel
Description: as §1

[4] = target: CALCR-RAMP3 (Homo sapiens, UniProt O60896+P30988)
Sequence of CALCR-RAMP3 (P30988 25-474): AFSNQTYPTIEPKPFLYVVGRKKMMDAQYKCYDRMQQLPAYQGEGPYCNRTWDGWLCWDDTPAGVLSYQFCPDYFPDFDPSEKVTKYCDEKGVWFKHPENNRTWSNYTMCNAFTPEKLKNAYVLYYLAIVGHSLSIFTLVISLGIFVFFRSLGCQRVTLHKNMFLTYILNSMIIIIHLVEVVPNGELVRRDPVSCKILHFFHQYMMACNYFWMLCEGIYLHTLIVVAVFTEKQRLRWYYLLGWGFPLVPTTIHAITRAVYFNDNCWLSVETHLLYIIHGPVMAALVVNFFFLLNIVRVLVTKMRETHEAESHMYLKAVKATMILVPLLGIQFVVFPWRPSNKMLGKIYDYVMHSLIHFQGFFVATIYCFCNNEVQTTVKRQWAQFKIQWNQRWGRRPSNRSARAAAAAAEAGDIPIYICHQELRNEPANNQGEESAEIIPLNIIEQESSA
Sequence of CALCR-RAMP3 (O60896 24-148 partner): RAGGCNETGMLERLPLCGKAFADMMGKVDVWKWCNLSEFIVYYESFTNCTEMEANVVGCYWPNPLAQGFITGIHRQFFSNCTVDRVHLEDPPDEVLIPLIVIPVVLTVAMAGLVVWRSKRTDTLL
Description: as §1

[5] = target: T4, SSTR3 (Homo sapiens, UniProt P32745)
T4 construct: purchased DiscoveRx (Eurofins) gpcrMAX PathHunter β-arrestin panel
Description: as §1

[6] = target: T5, CHRM5 (Homo sapiens, UniProt P08912)
T5 construct: purchased DiscoveRx (Eurofins) gpcrMAX PathHunter β-arrestin panel
Description: as §1

[7] = target: T6, GHSR (Homo sapiens, UniProt Q92847)
T6 construct: purchased DiscoveRx (Eurofins) gpcrMAX PathHunter β-arrestin panel
T6 sequence (Q92847 whole entry): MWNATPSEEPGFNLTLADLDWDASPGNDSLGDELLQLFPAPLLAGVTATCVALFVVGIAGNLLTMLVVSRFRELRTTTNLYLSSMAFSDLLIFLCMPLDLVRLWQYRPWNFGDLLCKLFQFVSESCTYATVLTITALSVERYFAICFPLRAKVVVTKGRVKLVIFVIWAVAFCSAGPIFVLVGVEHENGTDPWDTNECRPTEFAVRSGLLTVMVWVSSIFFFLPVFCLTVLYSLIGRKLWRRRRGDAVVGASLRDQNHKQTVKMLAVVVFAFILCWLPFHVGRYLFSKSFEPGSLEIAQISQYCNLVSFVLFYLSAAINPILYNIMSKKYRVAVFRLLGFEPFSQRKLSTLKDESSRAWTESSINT
Description: as §1

[8] = target: T7, MC3R (Homo sapiens, UniProt P41968)
T7 construct: purchased DiscoveRx (Eurofins) gpcrMAX PathHunter β-arrestin panel
Description: as §1

[9] = target: T8, F2R (Homo sapiens, UniProt P25116)
T8 construct: purchased DiscoveRx (Eurofins) gpcrMAX PathHunter β-arrestin panel
Description: as §1

[10] = target: T9, MLNR (Homo sapiens, UniProt O43193)
T9 construct: purchased DiscoveRx (Eurofins) gpcrMAX PathHunter β-arrestin panel
T9 sequence (O43193 whole entry): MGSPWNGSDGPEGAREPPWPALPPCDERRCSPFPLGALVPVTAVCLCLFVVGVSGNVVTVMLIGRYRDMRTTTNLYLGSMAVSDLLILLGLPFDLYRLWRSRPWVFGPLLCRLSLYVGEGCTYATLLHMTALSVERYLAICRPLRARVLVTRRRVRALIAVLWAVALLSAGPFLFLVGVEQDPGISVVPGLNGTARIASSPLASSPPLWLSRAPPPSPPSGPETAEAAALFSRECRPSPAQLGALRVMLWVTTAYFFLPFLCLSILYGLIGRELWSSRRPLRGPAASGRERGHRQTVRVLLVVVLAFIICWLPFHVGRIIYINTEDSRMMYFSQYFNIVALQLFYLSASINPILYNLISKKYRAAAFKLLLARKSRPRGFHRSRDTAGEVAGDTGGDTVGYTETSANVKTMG
Description: as §1

[11] = target: T10, MCHR2 (Homo sapiens, UniProt Q969V1)
T10 construct: purchased DiscoveRx (Eurofins) gpcrMAX PathHunter β-arrestin panel
Description: as §1

[12] = target: T11, VIPR1 (Homo sapiens, UniProt P32241)
T11 construct: purchased DiscoveRx (Eurofins) gpcrMAX PathHunter β-arrestin panel
Description: as §1

[13] = target: T12, PTHR1 (Homo sapiens, UniProt Q03431)
T12 construct: purchased DiscoveRx (Eurofins) gpcrMAX PathHunter β-arrestin panel
Description: as §1

[14] = target: T13, HTR1A (Homo sapiens, UniProt P08908)
T13 construct: purchased DiscoveRx (Eurofins) gpcrMAX PathHunter β-arrestin panel
Description: as §1

[15] = target: T14, CHRM3 (Homo sapiens, UniProt P20309)
T14 construct: purchased DiscoveRx (Eurofins) gpcrMAX PathHunter β-arrestin panel
Description: as §1

[16] = target: T15, ADORA3 (Homo sapiens, UniProt P0DMS8)
T15 construct: purchased DiscoveRx (Eurofins) gpcrMAX PathHunter β-arrestin panel
Description: as §1

[17] = target: T16, CRHR1 (Homo sapiens, UniProt P34998)
T16 construct: purchased DiscoveRx (Eurofins) gpcrMAX PathHunter β-arrestin panel
T16 sequence (P34998 24-415): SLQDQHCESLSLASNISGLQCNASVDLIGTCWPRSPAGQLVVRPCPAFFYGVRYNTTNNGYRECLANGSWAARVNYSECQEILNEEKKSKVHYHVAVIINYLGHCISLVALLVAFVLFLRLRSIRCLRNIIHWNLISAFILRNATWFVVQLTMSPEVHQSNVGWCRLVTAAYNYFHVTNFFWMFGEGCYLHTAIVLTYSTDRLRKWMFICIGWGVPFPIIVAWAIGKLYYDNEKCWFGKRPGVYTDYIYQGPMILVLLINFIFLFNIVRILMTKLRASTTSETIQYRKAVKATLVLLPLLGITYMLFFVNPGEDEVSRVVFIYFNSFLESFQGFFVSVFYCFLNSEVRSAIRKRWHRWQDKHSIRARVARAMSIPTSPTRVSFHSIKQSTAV
Description: as §1

[18] = target: T17, F2RL3 (Homo sapiens, UniProt Q96RI0)
T17 construct: purchased DiscoveRx (Eurofins) gpcrMAX PathHunter β-arrestin panel
Description: as §1

[19] = target: T18, PRLHR (Homo sapiens, UniProt P49683)
T18 construct: purchased DiscoveRx (Eurofins) gpcrMAX PathHunter β-arrestin panel
Description: as §1

[20] = target: T19, DRD2L (Homo sapiens, UniProt P14416)
T19 construct: purchased DiscoveRx (Eurofins) gpcrMAX PathHunter β-arrestin panel
Description: as §1

[21] = target: T20, ADCYAP1R1 (Homo sapiens, UniProt P41586)
T20 construct: purchased DiscoveRx (Eurofins) gpcrMAX PathHunter β-arrestin panel
Description: as §1

[22] = target: T21, GLP1R (Homo sapiens, UniProt P43220)
T21 construct: purchased DiscoveRx (Eurofins) gpcrMAX PathHunter β-arrestin panel
Description: as §1

[23] = target: T22, P2RY6 (Homo sapiens, UniProt Q15077)
T22 construct: purchased DiscoveRx (Eurofins) gpcrMAX PathHunter β-arrestin panel
T22 sequence (Q15077 whole entry): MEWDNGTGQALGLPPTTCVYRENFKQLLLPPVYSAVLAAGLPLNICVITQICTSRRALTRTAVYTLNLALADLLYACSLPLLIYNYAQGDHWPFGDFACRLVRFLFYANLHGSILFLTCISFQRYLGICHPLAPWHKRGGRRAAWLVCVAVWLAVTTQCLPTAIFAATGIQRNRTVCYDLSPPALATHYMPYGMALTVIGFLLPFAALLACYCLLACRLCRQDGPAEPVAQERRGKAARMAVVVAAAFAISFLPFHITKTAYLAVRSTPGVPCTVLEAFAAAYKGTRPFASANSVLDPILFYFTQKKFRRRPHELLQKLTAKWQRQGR
Description: as §1

[24] = target: T23, DRD1 (Homo sapiens, UniProt P21728)
T23 construct: purchased DiscoveRx (Eurofins) gpcrMAX PathHunter β-arrestin panel
T23 sequence (P21728 whole entry): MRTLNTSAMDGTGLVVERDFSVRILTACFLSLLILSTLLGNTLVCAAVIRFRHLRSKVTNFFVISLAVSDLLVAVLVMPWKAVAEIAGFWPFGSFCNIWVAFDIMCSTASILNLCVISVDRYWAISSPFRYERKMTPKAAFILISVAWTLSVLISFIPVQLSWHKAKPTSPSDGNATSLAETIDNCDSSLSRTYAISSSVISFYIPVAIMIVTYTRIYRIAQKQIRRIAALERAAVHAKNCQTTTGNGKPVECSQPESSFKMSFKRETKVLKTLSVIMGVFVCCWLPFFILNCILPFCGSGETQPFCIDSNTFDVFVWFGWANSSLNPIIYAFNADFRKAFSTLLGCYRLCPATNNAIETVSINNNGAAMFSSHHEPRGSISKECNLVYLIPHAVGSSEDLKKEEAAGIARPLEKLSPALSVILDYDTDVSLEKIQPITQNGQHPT
Description: as §1

[25] = target: T24, CCR7 (Homo sapiens, UniProt P32248)
T24 construct: purchased DiscoveRx (Eurofins) gpcrMAX PathHunter β-arrestin panel
Description: as §1

[26] = target: T25, MRGPRX1 (Homo sapiens, UniProt Q96LB2)
T25 construct: purchased DiscoveRx (Eurofins) gpcrMAX PathHunter β-arrestin panel
Description: as §1

[27] = target: T26, ADRA2B (Homo sapiens, UniProt P18089)
T26 construct: purchased DiscoveRx (Eurofins) gpcrMAX PathHunter β-arrestin panel
Description: as §1

[28] = target: ADRB2 (Homo sapiens, UniProt P07550)
Description: as §1

[29] = target: BRS3 (Homo sapiens, UniProt P32247)
Description: as §1

[30] = target: T27, KISS1R (Homo sapiens, UniProt Q969F8)
T27 construct: purchased DiscoveRx (Eurofins) gpcrMAX PathHunter β-arrestin panel
Description: as §1

[31] = target: T28, NPFFR1 (Homo sapiens, UniProt Q9GZQ6)
T28 construct: purchased DiscoveRx (Eurofins) gpcrMAX PathHunter β-arrestin panel
Description: as §1

[32] = target: AVPR1B (Homo sapiens, UniProt P47901)
Description: as §1

[33] = target: T29, RXFP3 (Homo sapiens, UniProt Q9NSD7)
T29 construct: purchased DiscoveRx (Eurofins) gpcrMAX PathHunter β-arrestin panel
Description: as §1

[34] = target: T30, HRH1 (Homo sapiens, UniProt P35367)
T30 construct: purchased DiscoveRx (Eurofins) gpcrMAX PathHunter β-arrestin panel
T30 sequence (P35367 whole entry): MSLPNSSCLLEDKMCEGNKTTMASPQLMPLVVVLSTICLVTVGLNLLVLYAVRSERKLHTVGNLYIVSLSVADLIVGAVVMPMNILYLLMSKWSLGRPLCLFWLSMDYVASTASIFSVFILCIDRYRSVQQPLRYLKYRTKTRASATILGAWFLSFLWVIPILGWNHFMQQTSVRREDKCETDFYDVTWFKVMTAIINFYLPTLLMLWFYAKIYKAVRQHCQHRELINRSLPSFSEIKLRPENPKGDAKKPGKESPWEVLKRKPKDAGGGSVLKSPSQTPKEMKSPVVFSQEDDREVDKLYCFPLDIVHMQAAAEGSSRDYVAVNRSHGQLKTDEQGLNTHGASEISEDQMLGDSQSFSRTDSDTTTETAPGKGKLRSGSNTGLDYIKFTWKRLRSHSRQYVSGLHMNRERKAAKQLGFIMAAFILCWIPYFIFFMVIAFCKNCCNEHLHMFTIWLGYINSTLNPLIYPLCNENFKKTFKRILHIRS
Description: as §1

[35] = target: T31, P2RY12 (Homo sapiens, UniProt Q9H244)
T31 construct: purchased DiscoveRx (Eurofins) gpcrMAX PathHunter β-arrestin panel
T31 sequence (Q9H244 whole entry, one chain of several): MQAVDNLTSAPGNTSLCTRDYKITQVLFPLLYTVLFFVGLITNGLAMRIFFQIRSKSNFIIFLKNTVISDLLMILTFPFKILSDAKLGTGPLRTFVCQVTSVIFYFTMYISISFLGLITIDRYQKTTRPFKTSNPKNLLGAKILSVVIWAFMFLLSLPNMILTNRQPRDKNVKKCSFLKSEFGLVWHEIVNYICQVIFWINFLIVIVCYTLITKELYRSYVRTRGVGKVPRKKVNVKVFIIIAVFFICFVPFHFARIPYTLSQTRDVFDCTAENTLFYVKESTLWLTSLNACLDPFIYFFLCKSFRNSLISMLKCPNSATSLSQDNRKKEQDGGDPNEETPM
Description: as §1

[36] = target: T32, NTSR1 (Homo sapiens, UniProt P30989)
T32 construct: purchased DiscoveRx (Eurofins) gpcrMAX PathHunter β-arrestin panel
T32 sequence (P30989 whole entry): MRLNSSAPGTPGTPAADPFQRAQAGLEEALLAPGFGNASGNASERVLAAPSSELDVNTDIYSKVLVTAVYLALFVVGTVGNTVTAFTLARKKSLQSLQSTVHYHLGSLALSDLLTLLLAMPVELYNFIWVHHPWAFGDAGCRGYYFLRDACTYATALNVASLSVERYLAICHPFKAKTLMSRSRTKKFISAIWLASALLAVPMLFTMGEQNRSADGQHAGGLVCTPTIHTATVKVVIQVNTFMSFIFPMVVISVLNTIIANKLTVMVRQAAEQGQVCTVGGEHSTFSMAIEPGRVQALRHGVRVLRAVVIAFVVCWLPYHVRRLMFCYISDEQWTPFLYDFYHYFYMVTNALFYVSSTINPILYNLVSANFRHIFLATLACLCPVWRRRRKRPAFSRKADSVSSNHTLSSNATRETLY
Description: as §1

[37] = target: T33, MCHR1 (Homo sapiens, UniProt Q99705)
T33 construct: purchased DiscoveRx (Eurofins) gpcrMAX PathHunter β-arrestin panel
T33 sequence (Q99705 whole entry): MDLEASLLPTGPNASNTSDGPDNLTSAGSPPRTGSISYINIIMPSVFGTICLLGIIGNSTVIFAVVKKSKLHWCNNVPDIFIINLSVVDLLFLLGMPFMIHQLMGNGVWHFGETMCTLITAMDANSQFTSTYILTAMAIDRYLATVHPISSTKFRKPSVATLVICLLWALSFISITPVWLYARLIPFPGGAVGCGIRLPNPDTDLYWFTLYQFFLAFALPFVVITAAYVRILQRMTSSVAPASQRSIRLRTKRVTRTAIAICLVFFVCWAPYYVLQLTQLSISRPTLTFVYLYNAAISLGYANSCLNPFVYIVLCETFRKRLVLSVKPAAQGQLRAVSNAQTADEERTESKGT
Description: as §1

[38] = target: T34, HTR1B (Homo sapiens, UniProt P28222)
T34 construct: purchased DiscoveRx (Eurofins) gpcrMAX PathHunter β-arrestin panel
Description: as §1

[39] = target: T35, SCTR (Homo sapiens, UniProt P47872)
T35 construct: purchased DiscoveRx (Eurofins) gpcrMAX PathHunter β-arrestin panel
Description: as §1

[40] = target: T36, GPR1 (Homo sapiens, UniProt P46091)
T36 construct: purchased DiscoveRx (Eurofins) gpcrMAX PathHunter β-arrestin panel
Description: as §1

[41] = target: T37, CCR8 (Homo sapiens, UniProt P51685)
T37 construct: purchased DiscoveRx (Eurofins) gpcrMAX PathHunter β-arrestin panel
Description: as §1

[42] = target: T38, PROKR2 (Homo sapiens, UniProt Q8NFJ6)
T38 construct: purchased DiscoveRx (Eurofins) gpcrMAX PathHunter β-arrestin panel
T38 sequence (Q8NFJ6 whole entry): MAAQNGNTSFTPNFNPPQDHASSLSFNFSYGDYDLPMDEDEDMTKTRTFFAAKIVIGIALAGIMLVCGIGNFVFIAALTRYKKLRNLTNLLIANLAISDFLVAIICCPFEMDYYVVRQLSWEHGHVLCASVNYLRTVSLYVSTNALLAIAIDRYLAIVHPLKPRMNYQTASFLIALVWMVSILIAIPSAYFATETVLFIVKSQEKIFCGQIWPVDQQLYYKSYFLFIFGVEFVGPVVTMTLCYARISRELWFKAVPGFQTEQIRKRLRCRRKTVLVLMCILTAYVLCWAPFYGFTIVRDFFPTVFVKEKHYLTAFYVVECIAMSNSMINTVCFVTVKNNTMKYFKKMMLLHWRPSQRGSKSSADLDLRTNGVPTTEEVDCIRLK
Description: as §1

[43] = target: T39, CXCR2 (Homo sapiens, UniProt P25025)
T39 construct: purchased DiscoveRx (Eurofins) gpcrMAX PathHunter β-arrestin panel
T39 sequence (P25025 whole entry): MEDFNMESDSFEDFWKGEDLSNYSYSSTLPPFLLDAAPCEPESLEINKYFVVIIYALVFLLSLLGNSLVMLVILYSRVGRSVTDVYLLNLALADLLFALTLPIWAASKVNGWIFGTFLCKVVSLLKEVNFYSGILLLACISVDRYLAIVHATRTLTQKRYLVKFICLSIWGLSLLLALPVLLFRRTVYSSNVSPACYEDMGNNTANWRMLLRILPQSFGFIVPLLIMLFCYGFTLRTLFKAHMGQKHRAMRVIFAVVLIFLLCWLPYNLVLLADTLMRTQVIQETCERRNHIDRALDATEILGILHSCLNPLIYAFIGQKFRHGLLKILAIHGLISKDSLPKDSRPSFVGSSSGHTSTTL
Description: as §1

inhibition at 20 µM [1]: 25.1% | inhibition at 20 µM [2]: 44.9% | inhibition at 20 µM [3]: 5.5% | inhibition at 20 µM [4]: 3.1% | inhibition at 20 µM [5]: 41.3% | inhibition at 20 µM [6]: 31.6% | inhibition at 20 µM [7]: 30.8% | inhibition at 20 µM [8]: 19.7% | inhibition at 20 µM [9]: 11.7% | inhibition at 20 µM [10]: 53.1% | inhibition at 20 µM [11]: 21.4% | inhibition at 20 µM [12]: -2.9% | inhibition at 20 µM [13]: 17.5% | inhibition at 20 µM [14]: 15.2% | inhibition at 20 µM [15]: 59.9% | inhibition at 20 µM [16]: 1% | inhibition at 20 µM [17]: -2.4% | inhibition at 20 µM [18]: 59.2% | inhibition at 20 µM [19]: 46.6% | inhibition at 20 µM [20]: 3.8% | inhibition at 20 µM [21]: 16.5% | inhibition at 20 µM [22]: 59.9% | inhibition at 20 µM [23]: 1.2% | inhibition at 20 µM [24]: 18.6% | inhibition at 20 µM [25]: 8.2% | inhibition at 20 µM [26]: -21.3% | inhibition at 20 µM [27]: 10.7% | inhibition at 20 µM [28]: 25.3% | inhibition at 20 µM [29]: 15.9% | inhibition at 20 µM [30]: 31.5% | inhibition at 20 µM [31]: 27.9% | inhibition at 20 µM [32]: 57.5% | inhibition at 20 µM [33]: 32.8% | inhibition at 20 µM [34]: 3% | inhibition at 20 µM [35]: 1.4% | inhibition at 20 µM [36]: 18.8% | inhibition at 20 µM [37]: 16.3% | inhibition at 20 µM [38]: 33.9% | inhibition at 20 µM [39]: 16.9% | inhibition at 20 µM [40]: 18.7% | inhibition at 20 µM [41]: 43% | inhibition at 20 µM [42]: 30.5% | inhibition at 20 µM [43]: 20.5%
Structure (SMILES): CC(=O)N[C@@H](CCCC#C/C=C/Cl)CCCCCCC(Cl)Cl [Compound 4, taveuniamide F]
